This note sets out measurements from publication PMC3602154 (PLoS ONE, 2013).

For orientation: pKi means the Ki on a negative log10 scale, so that one unit is a factor of ten. The low end stands for a high Ki, the high end for a low Ki.

pKi: −log10 of the molar value.

The target in one assay is 5-HT1D (Homo sapiens, UniProt P28221). The assay is described as follows: PDSP radioligand binding, serotonin receptor 5-HT1D. The text has this: (§1) [17] and http://pdsp.med.unc.edu/UNC-CH%20Protocol%20Book.pdf.
For the next assay, the target named is 5-HT2B (Homo sapiens, UniProt P41595). In words: PDSP radioligand binding, serotonin receptor 5-HT2B.
From the text: as §1

For another assay, the target named is 5-ht5a (Homo sapiens, UniProt P47898). The assay is described as follows: PDSP radioligand binding, serotonin receptor 5-HT5.
From the text: as §1

For the next assay, the target named is 5-HT6 (Homo sapiens, UniProt P50406). In words: PDSP radioligand binding, serotonin receptor 5-HT6.
From the text: as §1

The next assay deals with 5-HT7 (Homo sapiens, UniProt P34969). In words: PDSP radioligand binding, serotonin receptor 5-HT7.
From the text: as §1

The target in another assay is A2B4 (Rattus norvegicus, UniProt P12389+P12392). The assay is described as follows: PDSP radioligand binding, nicotinic receptor α2 ß4.
From the text: as §1

The target of the next assay is A4B2 (Rattus norvegicus, UniProt P09483+P12390). The assay is described as follows: PDSP radioligand binding, nicotinic receptor α4 ß2.
From the text: as §1

The target in the next assay is T1, Alpha1D (Homo sapiens, UniProt P25100).
T1 sequence (P25100 1-572): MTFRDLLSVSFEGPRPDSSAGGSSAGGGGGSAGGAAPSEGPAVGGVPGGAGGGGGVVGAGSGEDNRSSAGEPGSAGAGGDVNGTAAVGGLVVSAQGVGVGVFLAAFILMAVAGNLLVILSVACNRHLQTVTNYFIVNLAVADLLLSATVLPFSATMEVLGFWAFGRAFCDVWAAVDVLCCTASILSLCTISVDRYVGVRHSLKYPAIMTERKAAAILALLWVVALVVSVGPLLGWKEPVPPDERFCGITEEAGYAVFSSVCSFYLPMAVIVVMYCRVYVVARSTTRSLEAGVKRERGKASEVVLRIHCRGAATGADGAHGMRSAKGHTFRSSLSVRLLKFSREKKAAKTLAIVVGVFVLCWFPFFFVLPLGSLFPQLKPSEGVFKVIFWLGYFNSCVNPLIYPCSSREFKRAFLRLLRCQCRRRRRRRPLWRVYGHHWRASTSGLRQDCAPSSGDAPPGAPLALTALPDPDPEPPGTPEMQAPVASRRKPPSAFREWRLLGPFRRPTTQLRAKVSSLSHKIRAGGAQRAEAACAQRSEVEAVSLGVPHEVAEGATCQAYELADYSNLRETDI
In words: PDSP radioligand binding, adrenoceptor α1D.
From the text: as §1

A further assay has as its target Beta1 (Homo sapiens, UniProt P08588). The assay is described as follows: PDSP radioligand binding, adrenoceptor ß1.
From the text: as §1

The next assay deals with Beta3 (Homo sapiens, UniProt P13945). The assay is described as follows: PDSP radioligand binding, adrenoceptor ß3.
From the text: as §1

Another assay addresses CB1 (Homo sapiens, UniProt P21554). The assay is described as follows: PDSP radioligand binding, cannabinoid CB-1.
From the text: as §1

The target of the next assay is CB2 (Homo sapiens, UniProt P34972). In words: PDSP radioligand binding, cannabinoid CB-2.
From the text: as §1

For the next assay, the target named is D2 (Homo sapiens, UniProt P14416). The assay is described as follows: PDSP radioligand binding, dopamine receptor D2.
From the text: as §1

The next assay concerns the target D3 (Homo sapiens, UniProt P35462). The assay is described as follows: PDSP radioligand binding, dopamine receptor D3.
From the text: as §1

The next assay concerns the target T2, D4 (Homo sapiens, UniProt P21917).
T2 sequence (P21917 1-419): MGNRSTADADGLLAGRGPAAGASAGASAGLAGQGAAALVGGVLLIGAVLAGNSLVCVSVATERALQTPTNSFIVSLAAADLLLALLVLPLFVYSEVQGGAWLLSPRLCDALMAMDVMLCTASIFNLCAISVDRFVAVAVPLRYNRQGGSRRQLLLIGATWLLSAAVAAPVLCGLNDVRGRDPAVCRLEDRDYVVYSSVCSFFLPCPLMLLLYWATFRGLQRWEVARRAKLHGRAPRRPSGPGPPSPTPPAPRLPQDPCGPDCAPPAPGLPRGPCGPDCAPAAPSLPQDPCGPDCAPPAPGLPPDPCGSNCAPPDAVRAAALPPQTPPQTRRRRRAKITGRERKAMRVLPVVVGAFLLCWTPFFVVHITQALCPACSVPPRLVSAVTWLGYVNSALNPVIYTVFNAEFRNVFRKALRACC
In words: PDSP radioligand binding, dopamine receptor D4.
From the text: as §1

The target in another assay is GABAB (Homo sapiens, UniProt Q9UBS5). In words: PDSP radioligand binding, GABA-B.
From the text: as §1

The target of the next assay is H2 (Homo sapiens, UniProt P25021). In words: PDSP radioligand binding, histamine receptor H2.
From the text: as §1

The target in another assay is H4 (Homo sapiens, UniProt Q9H3N8). In words: PDSP radioligand binding, histamine receptor H4.
From the text: as §1

A further assay addresses T3, M4 (Homo sapiens, UniProt P08173).
T3 sequence (P08173 1-479): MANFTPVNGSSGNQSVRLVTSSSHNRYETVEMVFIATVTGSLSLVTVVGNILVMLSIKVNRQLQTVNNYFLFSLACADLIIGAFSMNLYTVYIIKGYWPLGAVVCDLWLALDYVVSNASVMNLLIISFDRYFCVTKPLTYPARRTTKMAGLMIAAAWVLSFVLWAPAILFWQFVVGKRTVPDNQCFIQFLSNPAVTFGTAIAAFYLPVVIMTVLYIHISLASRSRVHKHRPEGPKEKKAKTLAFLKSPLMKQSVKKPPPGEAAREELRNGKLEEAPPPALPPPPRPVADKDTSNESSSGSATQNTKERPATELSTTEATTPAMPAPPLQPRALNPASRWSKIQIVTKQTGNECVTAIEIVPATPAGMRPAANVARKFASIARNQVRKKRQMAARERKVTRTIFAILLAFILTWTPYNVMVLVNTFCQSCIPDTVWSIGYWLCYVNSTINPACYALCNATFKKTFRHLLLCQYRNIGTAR
In words: PDSP radioligand binding, muscarinic receptor M4.
From the text: as §1

The next assay has as its target MOR (Homo sapiens, UniProt P35372). In words: PDSP radioligand binding, opioid receptor MOR.
From the text: as §1

Chain of H2 (P25021 whole entry): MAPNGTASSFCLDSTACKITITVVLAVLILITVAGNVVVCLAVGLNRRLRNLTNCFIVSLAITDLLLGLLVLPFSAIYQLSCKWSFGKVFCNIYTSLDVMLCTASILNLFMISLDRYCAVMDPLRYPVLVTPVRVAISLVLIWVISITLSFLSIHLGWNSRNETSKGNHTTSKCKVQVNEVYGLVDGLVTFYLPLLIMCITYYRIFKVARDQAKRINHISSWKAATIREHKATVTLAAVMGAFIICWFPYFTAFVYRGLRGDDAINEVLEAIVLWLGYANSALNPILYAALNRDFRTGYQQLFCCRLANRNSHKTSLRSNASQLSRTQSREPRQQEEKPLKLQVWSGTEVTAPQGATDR
Chain of D3 (P35462 whole entry): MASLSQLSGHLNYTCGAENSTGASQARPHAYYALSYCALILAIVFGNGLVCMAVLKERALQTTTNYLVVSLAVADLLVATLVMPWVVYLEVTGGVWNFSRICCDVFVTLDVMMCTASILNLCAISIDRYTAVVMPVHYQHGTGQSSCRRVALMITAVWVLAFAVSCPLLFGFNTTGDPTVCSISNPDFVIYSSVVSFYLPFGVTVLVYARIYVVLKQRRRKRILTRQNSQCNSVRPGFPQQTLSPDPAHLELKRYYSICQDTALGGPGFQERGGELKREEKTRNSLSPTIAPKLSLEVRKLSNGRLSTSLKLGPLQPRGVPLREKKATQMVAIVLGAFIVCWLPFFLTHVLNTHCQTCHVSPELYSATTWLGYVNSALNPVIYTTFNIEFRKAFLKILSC
Chain of GABAB (Q9UBS5 15-961 limits assumed): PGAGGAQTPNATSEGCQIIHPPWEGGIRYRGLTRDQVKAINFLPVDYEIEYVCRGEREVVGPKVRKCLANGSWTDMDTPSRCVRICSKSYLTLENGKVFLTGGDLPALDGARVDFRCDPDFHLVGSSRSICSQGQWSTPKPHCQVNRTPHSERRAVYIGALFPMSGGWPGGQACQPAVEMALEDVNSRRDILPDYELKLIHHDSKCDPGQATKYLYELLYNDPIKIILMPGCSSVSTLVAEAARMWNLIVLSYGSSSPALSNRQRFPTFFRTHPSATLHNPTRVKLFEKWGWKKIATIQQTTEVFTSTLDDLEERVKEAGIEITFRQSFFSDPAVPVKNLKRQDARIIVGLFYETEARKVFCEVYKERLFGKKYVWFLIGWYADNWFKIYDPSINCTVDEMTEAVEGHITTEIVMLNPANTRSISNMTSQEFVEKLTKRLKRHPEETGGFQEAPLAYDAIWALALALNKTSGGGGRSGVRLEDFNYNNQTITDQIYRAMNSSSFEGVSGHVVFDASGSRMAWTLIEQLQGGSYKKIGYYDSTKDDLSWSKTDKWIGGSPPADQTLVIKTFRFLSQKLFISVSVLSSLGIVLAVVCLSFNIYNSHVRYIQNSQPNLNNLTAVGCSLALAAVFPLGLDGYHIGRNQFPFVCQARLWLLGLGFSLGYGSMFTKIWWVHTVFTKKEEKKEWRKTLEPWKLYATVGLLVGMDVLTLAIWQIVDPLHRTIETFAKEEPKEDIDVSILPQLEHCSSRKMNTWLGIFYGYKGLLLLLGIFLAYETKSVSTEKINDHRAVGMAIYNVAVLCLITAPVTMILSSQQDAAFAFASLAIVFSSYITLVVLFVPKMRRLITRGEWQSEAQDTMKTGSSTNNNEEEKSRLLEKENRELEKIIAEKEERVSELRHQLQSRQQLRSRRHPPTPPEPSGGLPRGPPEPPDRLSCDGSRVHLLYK
Chain of GABAB (O75899 42-941 partner): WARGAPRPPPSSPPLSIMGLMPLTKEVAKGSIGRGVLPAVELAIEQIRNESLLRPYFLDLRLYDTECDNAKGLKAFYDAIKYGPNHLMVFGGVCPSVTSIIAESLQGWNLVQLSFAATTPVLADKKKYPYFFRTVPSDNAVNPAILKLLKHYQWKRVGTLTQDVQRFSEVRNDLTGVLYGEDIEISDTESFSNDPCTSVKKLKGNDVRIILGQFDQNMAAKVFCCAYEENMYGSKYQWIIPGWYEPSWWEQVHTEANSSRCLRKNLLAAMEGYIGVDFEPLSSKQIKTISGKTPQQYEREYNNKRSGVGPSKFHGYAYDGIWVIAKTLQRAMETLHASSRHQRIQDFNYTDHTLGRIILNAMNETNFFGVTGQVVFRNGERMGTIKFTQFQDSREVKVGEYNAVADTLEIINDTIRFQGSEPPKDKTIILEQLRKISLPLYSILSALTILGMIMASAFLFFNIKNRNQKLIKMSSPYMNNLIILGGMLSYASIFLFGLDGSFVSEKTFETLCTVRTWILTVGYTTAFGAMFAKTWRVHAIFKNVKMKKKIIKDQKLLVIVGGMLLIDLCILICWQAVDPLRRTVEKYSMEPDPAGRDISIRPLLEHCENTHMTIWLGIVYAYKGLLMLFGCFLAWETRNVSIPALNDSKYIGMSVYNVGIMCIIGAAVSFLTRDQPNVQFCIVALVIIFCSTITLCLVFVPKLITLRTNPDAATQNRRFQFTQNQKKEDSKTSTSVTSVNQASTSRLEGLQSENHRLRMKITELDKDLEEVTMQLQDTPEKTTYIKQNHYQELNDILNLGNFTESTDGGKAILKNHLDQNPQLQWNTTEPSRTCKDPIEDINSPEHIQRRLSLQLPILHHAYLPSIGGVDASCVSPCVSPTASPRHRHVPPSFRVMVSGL
Chain of 5-HT6 (P50406 whole entry, species assumed): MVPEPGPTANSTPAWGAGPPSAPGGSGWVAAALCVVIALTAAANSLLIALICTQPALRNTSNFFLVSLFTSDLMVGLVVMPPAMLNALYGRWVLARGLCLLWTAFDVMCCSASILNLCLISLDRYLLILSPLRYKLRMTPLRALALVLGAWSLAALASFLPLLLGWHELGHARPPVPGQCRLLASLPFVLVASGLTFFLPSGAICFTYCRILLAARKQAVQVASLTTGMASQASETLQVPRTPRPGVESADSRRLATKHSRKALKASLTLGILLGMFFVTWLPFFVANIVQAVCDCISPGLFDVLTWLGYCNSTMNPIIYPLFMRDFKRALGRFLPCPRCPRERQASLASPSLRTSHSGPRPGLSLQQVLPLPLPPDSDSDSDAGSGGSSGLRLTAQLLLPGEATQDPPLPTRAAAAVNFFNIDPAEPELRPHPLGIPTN
Chain of H4 (Q9H3N8 whole entry): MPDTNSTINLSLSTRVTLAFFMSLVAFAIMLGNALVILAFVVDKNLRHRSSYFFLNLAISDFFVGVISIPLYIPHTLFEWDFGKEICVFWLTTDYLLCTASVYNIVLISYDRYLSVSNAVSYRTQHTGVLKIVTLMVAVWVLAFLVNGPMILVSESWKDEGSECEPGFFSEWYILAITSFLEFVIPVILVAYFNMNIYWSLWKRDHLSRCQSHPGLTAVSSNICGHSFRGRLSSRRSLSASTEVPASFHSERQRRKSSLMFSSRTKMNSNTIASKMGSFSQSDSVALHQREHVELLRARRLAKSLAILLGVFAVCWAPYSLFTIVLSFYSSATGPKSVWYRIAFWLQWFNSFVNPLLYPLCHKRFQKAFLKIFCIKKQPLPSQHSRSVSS
Chain of 5-HT1D (P28221 whole entry, species assumed): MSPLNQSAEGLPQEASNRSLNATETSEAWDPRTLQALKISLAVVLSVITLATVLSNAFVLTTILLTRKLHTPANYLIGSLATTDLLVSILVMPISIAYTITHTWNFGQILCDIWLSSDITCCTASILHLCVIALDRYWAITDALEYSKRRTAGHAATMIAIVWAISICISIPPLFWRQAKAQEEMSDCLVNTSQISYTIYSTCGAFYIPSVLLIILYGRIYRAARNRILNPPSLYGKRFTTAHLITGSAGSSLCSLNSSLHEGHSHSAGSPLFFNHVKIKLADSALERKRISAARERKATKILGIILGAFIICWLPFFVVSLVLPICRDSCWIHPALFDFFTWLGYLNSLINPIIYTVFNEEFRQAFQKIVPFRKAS
Chain of 5-HT2B (P41595 whole entry, species assumed): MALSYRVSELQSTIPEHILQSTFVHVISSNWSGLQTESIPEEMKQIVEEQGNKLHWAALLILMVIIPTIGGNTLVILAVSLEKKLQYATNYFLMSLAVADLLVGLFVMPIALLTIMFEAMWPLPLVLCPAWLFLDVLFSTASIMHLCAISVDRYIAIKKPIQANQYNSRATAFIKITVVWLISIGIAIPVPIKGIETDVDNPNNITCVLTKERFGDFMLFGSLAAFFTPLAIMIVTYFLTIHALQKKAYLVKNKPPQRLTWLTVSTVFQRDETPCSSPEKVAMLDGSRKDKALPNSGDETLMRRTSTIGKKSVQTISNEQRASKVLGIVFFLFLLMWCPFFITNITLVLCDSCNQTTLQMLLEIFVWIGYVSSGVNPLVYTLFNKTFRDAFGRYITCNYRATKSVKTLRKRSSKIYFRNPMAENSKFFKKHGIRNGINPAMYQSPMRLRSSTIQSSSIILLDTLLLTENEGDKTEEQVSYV
Chain of Beta1 (P08588 whole entry): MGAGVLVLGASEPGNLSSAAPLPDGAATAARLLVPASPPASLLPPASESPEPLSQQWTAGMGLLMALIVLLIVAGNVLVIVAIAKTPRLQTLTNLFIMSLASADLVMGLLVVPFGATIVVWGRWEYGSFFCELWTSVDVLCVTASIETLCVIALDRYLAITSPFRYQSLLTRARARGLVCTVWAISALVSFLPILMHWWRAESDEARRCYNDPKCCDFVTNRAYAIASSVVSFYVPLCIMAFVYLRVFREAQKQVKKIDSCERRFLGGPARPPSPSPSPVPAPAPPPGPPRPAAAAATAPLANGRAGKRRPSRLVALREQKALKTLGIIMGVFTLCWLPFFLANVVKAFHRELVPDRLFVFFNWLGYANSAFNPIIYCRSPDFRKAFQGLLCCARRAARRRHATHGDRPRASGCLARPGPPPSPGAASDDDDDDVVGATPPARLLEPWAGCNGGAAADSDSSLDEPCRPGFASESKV

With `CCNC1(c2cccc(OC)c2)CCCCC1=O` (racemic) [Methoxetamine, (RS)-2-(ethylamino)-2-(3-methoxyphenyl)cyclohexanone], the negative-log Ki (pKi) on 5-HT1D, on 5-HT2B, at 5-ht5a, at 5-HT6, at 5-HT7 and at A2B4 was less than 5.00 throughout. Further, the pKi at A4B2, at Alpha1D, on Beta1, at Beta3, on CB1 and at CB2 was less than 5.00 each time. For the same compound, the pKi at D2, at D3, on D4, at GABAB, on H2 and at H4 was less than 5.00 throughout. Further, the pKi on M4 and at MOR was less than 5.00 each time.

On to `COc1cccc(C2(N3CCCCC3)CCCCC2)c1` [3-MeO-PCP, 1-[1-(3-methoxyphenyl)cyclohexyl]piperidine], for which the pKi on 5-HT1D, at 5-HT2B, on 5-ht5a, at 5-HT6, at 5-HT7 and on A2B4 was less than 5.00 in each case. For the same compound, the negative-log Ki (pKi) at A4B2, at Alpha1D, on Beta1, at Beta3, on CB1 and at CB2 was less than 5.00 in each case. Besides, the negative logarithm of the Ki (pKi) on D2 is less than 5.00; on D3 it was less than 5.00; at D4, less than 5.00; at GABAB it was less than 5.00; on H2, 5.68; on H4, less than 5.00. Also, the negative logarithm of the Ki (pKi) at M4 and on MOR was less than 5.00 each time.

As to `COc1ccc(C2(N3CCCCC3)CCCCC2)cc1` [4-MeO-PCP, 1-[1-(4-methoxyphenyl)cyclohexyl]piperidine], the negative-log Ki (pKi) at 5-HT1D, at 5-HT2B, on 5-ht5a, at 5-HT6, on 5-HT7 and at A2B4 was less than 5.00 each time. The negative-log Ki (pKi) on A4B2, at Alpha1D, at Beta1, on Beta3, at CB1 and at CB2 was less than 5.00 in each case. The pKi on D2, on D3, at D4, on GABAB, at H2 and on H4 was less than 5.00 throughout. In addition, the pKi at M4 and on MOR was less than 5.00 throughout.
